Legend:
Type in all cases: biochemical
JAK2 = target: T1, JAK2 (Homo sapiens, UniProt O60674); experiment: JAK2 inhibition (Table 4); settings: read-out: JAK2 Ki
T1 construct: made in house; host or cells: SF9 insect cells (baculovirus)

JAK3 = target: T2, JAK3 (Homo sapiens, UniProt P52333); experiment: JAK3 inhibition (Table 4); settings: read-out: JAK3 Ki
T2 construct: made in house; host or cells: SF9 insect cells (baculovirus)

JAK1 = target: T3, JAK1 (Homo sapiens, UniProt P23458); experiment: JAK1 inhibition (Table 4); settings: read-out: JAK1 Ki
T3 construct: made in house; host or cells: SF9 insect cells (baculovirus)

TYK2 = target: T4, TYK2 (Homo sapiens, UniProt P29597); experiment: TYK2 inhibition (Table 4)
T4 construct: made in house; host or cells: SF9 insect cells (baculovirus)
T4 sequence (P29597 873-1187): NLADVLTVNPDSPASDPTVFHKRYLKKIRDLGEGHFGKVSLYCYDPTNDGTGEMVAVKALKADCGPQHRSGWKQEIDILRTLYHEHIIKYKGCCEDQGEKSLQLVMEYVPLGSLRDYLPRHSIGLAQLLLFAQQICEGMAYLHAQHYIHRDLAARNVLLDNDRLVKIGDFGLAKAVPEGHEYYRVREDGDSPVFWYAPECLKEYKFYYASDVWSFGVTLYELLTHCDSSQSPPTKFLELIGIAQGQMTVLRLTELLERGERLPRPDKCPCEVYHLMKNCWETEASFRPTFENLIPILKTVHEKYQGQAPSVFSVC

T2 sequence (P52333 783-1124): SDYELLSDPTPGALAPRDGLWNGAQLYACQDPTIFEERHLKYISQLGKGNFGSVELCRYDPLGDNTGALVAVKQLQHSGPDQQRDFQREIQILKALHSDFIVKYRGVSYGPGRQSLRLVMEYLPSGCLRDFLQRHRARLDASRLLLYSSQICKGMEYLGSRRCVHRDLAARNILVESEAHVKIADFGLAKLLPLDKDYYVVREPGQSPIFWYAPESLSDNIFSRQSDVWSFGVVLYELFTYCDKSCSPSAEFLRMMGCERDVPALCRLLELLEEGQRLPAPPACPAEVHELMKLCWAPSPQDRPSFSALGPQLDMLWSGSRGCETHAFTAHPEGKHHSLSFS
T3 sequence (P23458 852-1154): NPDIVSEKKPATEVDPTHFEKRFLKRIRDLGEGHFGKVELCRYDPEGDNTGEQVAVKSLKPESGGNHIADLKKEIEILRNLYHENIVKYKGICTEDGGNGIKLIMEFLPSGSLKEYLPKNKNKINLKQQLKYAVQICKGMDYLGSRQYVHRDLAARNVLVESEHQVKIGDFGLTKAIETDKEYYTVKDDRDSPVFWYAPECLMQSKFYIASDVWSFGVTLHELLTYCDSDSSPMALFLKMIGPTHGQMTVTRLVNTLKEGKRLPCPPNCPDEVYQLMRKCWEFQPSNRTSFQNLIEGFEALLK
T1 sequence (O60674 812-1132): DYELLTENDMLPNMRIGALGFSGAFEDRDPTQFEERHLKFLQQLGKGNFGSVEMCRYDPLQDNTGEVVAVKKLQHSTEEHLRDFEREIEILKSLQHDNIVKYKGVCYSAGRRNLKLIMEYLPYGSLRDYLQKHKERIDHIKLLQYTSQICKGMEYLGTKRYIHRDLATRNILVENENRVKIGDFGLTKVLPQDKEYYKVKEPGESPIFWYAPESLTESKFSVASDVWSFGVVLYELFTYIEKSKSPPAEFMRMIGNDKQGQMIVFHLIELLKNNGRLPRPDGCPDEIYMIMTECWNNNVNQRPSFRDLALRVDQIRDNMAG

| Compound | Ki (JAK2) [nM] | Ki (JAK3) [nM] | Ki (JAK1) [nM] | Ki (TYK2) [nM] |
| --- | --- | --- | --- | --- |
| CN(C)CC(=O)N1CCC[C@@H](n2cnc3cnc4[nH]ccc4c32)C1 [Example 32, 2-Dimethylamino-1-[(R)-3-(6H-1,3,5,6-tetraaza-as-indacen-1-yl)-piperidin-1-yl]ethanone] | 568 | 1820 | 181 | 3180 |
| O=C(c1cccnc1)N1CCC(n2cnc3cnc4[nH]ccc4c32)CC1 [Example 34, Pyridin-3-yl-[4-(6H-1,3,5,6-tetraaza-as-indacen-1-yl)-piperidin-1-yl]methanone] | 63.1 | 1070 | 31.5 | 423 |
| N#CCC(=O)N1CC[C@@H](n2cnc3cnc4[nH]ccc4c32)C1 [Example 37, 3-Oxo-3-[(R)-3-(6H-1,3,5,6-tetraaza-as-indacen-1-yl)-pyrrolidin-1-yl]propionitrile] | 44.2 | 144 | 11.3 | 198 |
| N#CCC(=O)N1CC(n2cnc3cnc4[nH]ccc4c32)C1 [Example 38, 3-Oxo-3-[3-(6H-1,3,5,6-tetraaza-as-indacen-1-yl)-azetidin-1-yl]propionitrile] | 315 | 713 | 412 | 1970 |
| c1cncc(CN2CCC[C@@H](n3cnc4cnc5[nH]ccc5c43)C2)c1 [Example 39, 1-((R)-1-Pyridin-3-ylmethyl-piperidin-3-yl)-1,6-dihydro-1,3,5,6-tetraaza-as-indacene] | 102 | 182 | 35.9 | 330 |
| N#Cc1ccc(CN2CCC[C@@H](n3cnc4cnc5[nH]ccc5c43)C2)cc1 [Example 40, 4-[(R)-3-(6H-1,3,5,6-Tetraaza-as-indacen-1-yl)-piperidin-1-ylmethyl]benzonitrile] | 17.8 | 66.9 | 6.35 | 107 |
| N#Cc1ccccc1CN1CCC[C@@H](n2cnc3cnc4[nH]ccc4c32)C1 [Example 41, 2-[(R)-3-(6H-1,3,5,6-Tetraaza-as-indacen-1-yl)-piperidin-1-ylmethyl]benzonitrile] | 48.9 | 153 | 34.4 | 159 |
| c1ncc(CN2CCC[C@@H](n3cnc4cnc5[nH]ccc5c43)C2)cn1 [Example 42, 1-((R)-1-Pyrimidin-5-ylmethyl-piperidin-3-yl)-1,6-dihydro-1,3,5,6-tetraaza-as-indacene] | 41 | 93 | 14.9 | 122 |
| c1coc(CN2CCC[C@@H](n3cnc4cnc5[nH]ccc5c43)C2)n1 [Example 43, 1-((R)-1-Oxazol-2-ylmethyl-piperidin-3-yl)-1,6-dihydro-1,3,5,6-tetraaza-as-indacene] | 72.9 | 177 | 43.1 | 204 |
| Cn1ccnc1CN1CCC[C@@H](n2cnc3cnc4[nH]ccc4c32)C1 [Example 44, 1-[(R)-1-(1-Methyl-1H-imidazol-2-ylmethyl)-piperidin-3-yl]-1,6-dihdyro-1,3,5,6-tetraaza-as-indacene] | 121 | 241 | 105 | 423 |
| N#Cc1cccc(CN2CCC[C@@H](n3cnc4cnc5[nH]ccc5c43)C2)c1 [Example 45, 3-[(R)-3-(6H-1,3,5,6-Tetraaza-as-indacen-1-yl)-piperidin-1-ylmethyl]benzonitrile] | 18 | 27.5 | 7.58 | 129 |
| COc1ccc(CN2CCC[C@@H](n3cnc4cnc5[nH]ccc5c43)C2)cc1 [Example 46, 1-[(R)-1-(4-Methoxy-benzyl)-piperidin-3-yl]-1,6-dihydro-1,3,5,6-tetraaza-as-indacene] | 160 | 414 | 72.4 | 913 |
| Fc1cccc(CN2CCC[C@@H](n3cnc4cnc5[nH]ccc5c43)C2)c1 [Example 47, 1-[(R)-1-(3-Fluoro-benzyl)-piperidin-3-yl]-1,6-dihydro-1,3,5,6-tetraaza-as-indacene] | 28.9 | 52.2 | 13.1 | 101 |
| N#Cc1ccc(CN2CCC(n3cnc4cnc5[nH]ccc5c43)CC2)cc1 [Example 48, 4-[4-(6H-1,3,5,6-Tetraaza-as-indacen-1-yl)-piperidin-1-ylmethyl]benzonitrile] | 2.67 | 8.57 | 1.3 | 30.9 |
| N#Cc1cccc(CN2CCC(n3cnc4cnc5[nH]ccc5c43)CC2)c1 [Example 49, 3-[4-(6H-1,3,5,6-Tetraaza-as-indacen-1-yl)-piperidin-1-ylmethyl]benzonitrile] | 0.98 | 26.5 | 0.3 | 35.7 |
| c1cncc(CN2CCC(n3cnc4cnc5[nH]ccc5c43)CC2)c1 [Example 50, 1-(1-Pyridin-3-ylmethyl-piperidin-4-yl)-1,6-dihydro-1,3,5,6-tetraaza-as-indacene] | 4.84 | 18 | 2.48 | 88.8 |
| CC(c1ccccc1)N1CCC(n2cnc3cnc4[nH]ccc4c32)CC1 (stereo not drawn) [Example 51, 1-[1-(1-Phenyl-ethyl)-piperidin-4-yl]-1,6-dihydro-1,3,5,6-tetraaza-as-indacene] | 6.69 | 137 | 7.68 | 76.6 |
| N#Cc1ccc(S(=O)(=O)N2CCC(n3cnc4cnc5[nH]ccc5c43)CC2)cc1 [Example 56, 4-[4-(6H-1,3,5,6-Tetraaza-as-indacen-1-yl)-piperidine-1-sulfonyl]benzonitrile] | 9.97 | 337 | 3.84 | 64.7 |
| CS(=O)(=O)CCN1CCC[C@@H](n2cnc3cnc4[nH]ccc4c32)C1 [Example 57, 1-[(R)-1-(2-Methanesulfonyl-ethyl)-piperidin-3-yl]-1,6-dihydro-1,3,5,6-tetraaza-as-indacene] | 9.05 | 12 | 5.21 | 45.8 |
| CS(=O)(=O)CCN1CCC(n2cnc3cnc4[nH]ccc4c32)CC1 [Example 59, 1-[1-(2-Methanesulfonyl-ethyl)-piperidin-4-yl]-1,6-dihydro-1,3,5,6-tetraaza-as-indacene] | 6.01 | 27.7 | 1.96 | 30.5 |
| CN(C)C(=O)CN1CCC[C@@H](n2cnc3cnc4[nH]ccc4c32)C1 [Example 60, N,N-Dimethyl-2-[(R)-3-(6H-1,3,5,6-tetraaza-as-indacen-1-yl)-piperidin-1-yl]acetamide] | 201 | 625 | 135 | 715 |
| COCCN1CCC[C@@H](n2cnc3cnc4[nH]ccc4c32)C1 [Example 61, 1-[(R)-1-(2-Methoxy-ethyl)-piperidin-3-yl]-1,6-dihydro-1,3,5,6-tetraaza-as-indacene] | 253 | 220 | 153 | 1050 |
| CN(C)C(=O)CN1CCC(n2cnc3cnc4[nH]ccc4c32)CC1 [Example 62, N,N-Dimethyl-2-[4-(6H-1,3,5,6-tetraaza-as-indacen-1-yl)-piperidin-1-yl]acetamide] | 39.7 | 391 | 21.4 | 225 |
| COCCN1CCC(n2cnc3cnc4[nH]ccc4c32)CC1 [Example 63, 1-[1-(2-Methoxy-ethyl)-piperidin-4-yl]-1,6-dihydro-1,3,5,6-tetraaza-as-indacene] | 12 | 96.5 | 7.54 | 73.9 |
